Paper PMC7024211, “Antifouling Napyradiomycins from Marine-Derived Actinomycetes Streptomyces aculeolatus” (Marine Drugs, 2020)

Key:
P. batsensis [1] = experiment: Biofilm inhibition assay (crystal violet); assay type: cell-based, Pseudooceanicola batsensis; settings: Pseudooceanicola batsensis
Procedure: (§1) In a 96-well plate, biofilm grown cultures of M. hydrocarbonoclasticus and C. marina were incubated with napyradiomycins (1–12) at a concentration of 31.25 µg/mL. After discarding the media, biofilm inhibition was determined from OD600 measurements of crystal violet stained cells resuspended from the plate bottom with acetic acid.
(§2) Five marine bacterial species were used as models to assess antimicrofouling activity. The biofilm-forming marine bacteria Marinobacter hydrocarbonoclasticus DSM 8798 (ATCC 49840), Cobetia marina DSM 4741, Phaeobacter inhibens DSM 17,395, and Pseusooceanicola batsensis DSM 15,984 were obtained from DSMZ (Leibniz Institute DSMZ—German collection of Microorganisms and Cell Cultures) and Micrococcus luteus. Cultures were routinely grown in liquid marine broth (Carl Roth GmbH, Karlsruhe, Germany) with agitation (180 rpm) or on agar-supplemented marine broth, at 28 °C (M. hydrocarbonoclasticus and C. marina) or 30 °C (P. inhibens and P. batsensis). M. luteus was maintained in Brain Heart Infusion broth (BHI, Becton Dickinson, GmbH, Heidelberg, Germany) with agitation (180 rpm) or on agar-supplemented BHI, at 37 °C.
(§3) The antibiofilm activity of napyradiomycins (1–12) against the five marine bacterial species was assessed in 96-well polystyrene flat bottom microplates (Nunclon Delta Surface, Thermo Scientific, Roskilde, Denmark) as previously reported. For initial screening, bacterial overnight cultures were diluted to an optical density (OD600nm) value of 0.2 and incubated statically at 28 °C (M. hydrocarbonoclasticus, C. marina), 30 °C (P. inhibens, P. batsensis) or 37 °C (M. luteus) in the 96-well microplate in the presence or absence of 31.25 µg/mL of napyradiomycins, solubilized in DMSO. After 24 h (M. hydrocarbonoclasticus, C. marina) or 48 h (P. batsensis, P. inhibens, M. luteus) incubation, the OD600nm was determined. The planktonic cells and media were discarded, and the wells were washed twice with deionized water. The biofilm was fixed for 1 h at 60 °C and stained with crystal violet 0.06% for 10 min. The dye was discarded, and the wells were again washed twice with deionized water. The stained biofilm was solubilized with 30% acetic acid and the OD600nm was determined. […] The percentage of biofilm inhibition was calculated as the amount of biofilm relative to that of the bacterial species without added compounds (with the same amount of DMSO added). CuSO4 (5 μM), a potent antifouling agent used in antifouling paints, was used as reference.
(§4) All assays were performed in triplicate, and results are representative of the average and standard error of the mean (SEM). Statistical analysis was performed in GraphPad Prism 8.0.2, using one-way ANOVA followed by a Dunnett’s multiple comparisons test against the control (species grown with the same amount of DMSO added).

C. marina = experiment: Bacterial growth inhibition assay (OD600nm); assay type: cell-based, Cobetia marina
From the text: as §2
(§5) The antibacterial activity of the napyradiomycins (1–12) was assessed in 96-well polystyrene flat bottom microplates (Nunclon Delta Surface, Thermo Scientific, Roskilde, Denmark) following previously reported procedures. […] After 24 h (M. hydrocarbonoclasticus, C. marina) or 48 h (P. batsensis, P. inhibens, M. luteus) incubation, the OD600nm was determined (Molecular Devices, Spectra Max 190). […] The percentage of growth inhibition was calculated as the amount of growth relative to that of the bacterial species without added compounds (with the same amount of DMSO added). CuSO4 (5 μM), a potent antifouling agent used in antifouling paints, was used as reference.
(§6) All assays were performed in triplicate, and results are representative of the average and standard error of the mean (SEM). Statistical analysis was performed in GraphPad Prism 8.0.2 (San Diego, CA, USA), using one-way ANOVA followed by a Dunnett’s multiple comparisons test against the control (species grown with the same amount of DMSO added).

M. hydrocarbonoclasticus = experiment: Biofilm inhibition assay (crystal violet); assay type: cell-based, Marinobacter hydrocarbonoclasticus; settings: 31.25 µg/mL
Procedure: as §1, §2, §3, §4

P. batsensis [2] = experiment: Bacterial growth inhibition assay (OD600nm); assay type: cell-based, Pseudooceanicola batsensis
Procedure: As a first screening approach, liquid cultures of M. hydrocarbonoclasticus, and C. marina in a 96-well format were analyzed for bacterial growth inhibition by percent decrease in OD600 after incubation with napyradiomycins (1–12) at 31.25 µg/mL.
as §2
The antibacterial activity of the napyradiomycins (1–12) was assessed in 96-well polystyrene flat bottom microplates (Nunclon Delta Surface, Thermo Scientific, Roskilde, Denmark) following previously reported procedures. For initial screening, bacterial overnight cultures were diluted to an optical density (OD600nm) of 0.2 and incubated statically at 28 °C (M. hydrocarbonoclasticus, C. marina), 30 °C (P. inhibens, P. batsensis) or 37 °C (M. luteus) in a 96-well microplate in the presence or absence of 31.25 µg/mL of the napyradiomycins, solubilized in DMSO. After 24 h (M. hydrocarbonoclasticus, C. marina) or 48 h (P. batsensis, P. inhibens, M. luteus) incubation, the OD600nm was determined (Molecular Devices, Spectra Max 190). […] The percentage of growth inhibition was calculated as the amount of growth relative to that of the bacterial species without added compounds (with the same amount of DMSO added). CuSO4 (5 μM), a potent antifouling agent used in antifouling paints, was used as reference.
as §6

P. inhibens = experiment: Biofilm inhibition assay (crystal violet); assay type: cell-based, Phaeobacter inhibens; settings: 31.25 µg/mL
Procedure: as §1, §2, §3
All assays were performed in triplicate, and results are representative of the average and standard error of the mean (SEM). […]

M. luteus = experiment: Bacterial growth inhibition assay (OD600nm); assay type: cell-based, Micrococcus luteus
From the text: as §2, §5, §6

## CC(C)=CCCC(C)=CCC12OC(C)(C)C(Cl)CC1(Cl)C(=O)c1c(O)cc(O)cc1C2=O (stereo not drawn) [Napyradiomycin 1, napyradiomycin A1]
P. batsensis [1]; 0.98 µg/mL, read-out: % inhibition of biofilm formation P. batsensis
  inhibition at 0.98 µg/mL: 4.3 ± 4.3%
P. batsensis [1]; 1.95 µg/mL, read-out: % inhibition of biofilm formation P. batsensis
  inhibition at 1.95 µg/mL: 17.7 ± 0.8%
P. batsensis [1]; 3.91 µg/mL, read-out: % inhibition of biofilm formation P. batsensis
  inhibition at 3.91 µg/mL: 38.1 ± 0.6%
P. batsensis [1]; 7.81 µg/mL, read-out: % inhibition of biofilm formation P. batsensis
  inhibition at 7.81 µg/mL: 28.4 ± 2.8%
P. batsensis [1]; 15.6 µg/mL, read-out: % inhibition of biofilm formation P. batsensis
  inhibition at 15.6 µg/mL: 86.9 ± 1%
P. batsensis [1]; 31.25 µg/mL, read-out: % Biofilm Inhibition ± SEM P. batsensis
  inhibition at 31.25 µg/mL: 87.2 ± 0.1%
C. marina; 0.98 µg/mL
  % growth inhibition C. marina: N.I.
C. marina; 1.95 µg/mL
  % growth inhibition C. marina: N.I.
C. marina; Cobetia marina, 3.91 µg/mL
  inhibition at 3.91 µg/mL: 5.5 ± 0.8%
C. marina; Cobetia marina, 7.81 µg/mL
  inhibition at 7.81 µg/mL: 18.2 ± 0.7%
C. marina; Cobetia marina, 15.60 µg/mL
  inhibition at 15.6 µg/mL: 15.3 ± 0.7%
C. marina; Cobetia marina, 31.25 µg/mL
  inhibition at 31.25 µg/mL: 19.8 ± 0.6%
M. hydrocarbonoclasticus
  % Biofilm Inhibition ± SEM M. hydrocarbonoclasticus: N.I.
P. batsensis [2]; 0.98 µg/mL
  % growth inhibition P. batsensis: N.I.
P. batsensis [2]; 1.95 µg/mL
  % growth inhibition P. batsensis: N.I.
P. batsensis [2]; 3.91 µg/mL
  % growth inhibition P. batsensis: N.I.
P. batsensis [2]; Pseudooceanicola batsensis, 7.81 µg/mL
  inhibition at 7.81 µg/mL: 47.4 ± 0.3%
P. batsensis [2]; Pseudooceanicola batsensis, 15.60 µg/mL
  inhibition at 15.6 µg/mL: 62.7 ± 0.6%
P. batsensis [2]; Pseudooceanicola batsensis, 31.25 µg/mL
  inhibition at 31.25 µg/mL: 53.9 ± 0.3%
P. inhibens
  % Biofilm Inhibition ± SEM P. inhibens: N.I.
M. luteus; 3.91 µg/mL
  % growth inhibition M. luteus: 93.6 ± 1.1%
M. luteus; Micrococcus luteus, 0.98 µg/mL
  inhibition at 0.98 µg/mL: 42.9 ± 0.4%
M. luteus; Micrococcus luteus, 1.95 µg/mL
  inhibition at 1.95 µg/mL: 69.8 ± 0.5%
M. luteus; Micrococcus luteus, 3.91 µg/mL
  inhibition at 3.91 µg/mL: > 90%
M. luteus; Micrococcus luteus, 7.81 µg/mL
  inhibition at 7.81 µg/mL: 96 ± 0.3%
M. luteus; Micrococcus luteus, 15.60 µg/mL
  inhibition at 15.6 µg/mL: 96.5 ± 0.2%
M. luteus; Micrococcus luteus, 31.25 µg/mL
  inhibition at 31.25 µg/mL: 96.1 ± 0.5%
